# Target: T1, human Fatty Acid Synthase (Homo sapiens, UniProt P49327)
# T1 construct: made in house
# Assay: Human FAS enzyme assay (decrease in NADPH fluorescence)
# Assay type: biochemical
# Settings: % inhibition at a concentration of 100 μmolar
# Outline: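 In-house human FAS was preincubated with compound and NADPH for 15 min at room temperature in 0.1 M Tris pH 7.5 with EDTA, glutathione and BSA. Malonyl CoA and acetyl CoA (500 μM and 150 μM in the added mix) were then added for 60 min. IC50 came from time-zero-subtracted NADPH fluorescence (340/460 nm).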
# T1 sequence (P49327 whole entry): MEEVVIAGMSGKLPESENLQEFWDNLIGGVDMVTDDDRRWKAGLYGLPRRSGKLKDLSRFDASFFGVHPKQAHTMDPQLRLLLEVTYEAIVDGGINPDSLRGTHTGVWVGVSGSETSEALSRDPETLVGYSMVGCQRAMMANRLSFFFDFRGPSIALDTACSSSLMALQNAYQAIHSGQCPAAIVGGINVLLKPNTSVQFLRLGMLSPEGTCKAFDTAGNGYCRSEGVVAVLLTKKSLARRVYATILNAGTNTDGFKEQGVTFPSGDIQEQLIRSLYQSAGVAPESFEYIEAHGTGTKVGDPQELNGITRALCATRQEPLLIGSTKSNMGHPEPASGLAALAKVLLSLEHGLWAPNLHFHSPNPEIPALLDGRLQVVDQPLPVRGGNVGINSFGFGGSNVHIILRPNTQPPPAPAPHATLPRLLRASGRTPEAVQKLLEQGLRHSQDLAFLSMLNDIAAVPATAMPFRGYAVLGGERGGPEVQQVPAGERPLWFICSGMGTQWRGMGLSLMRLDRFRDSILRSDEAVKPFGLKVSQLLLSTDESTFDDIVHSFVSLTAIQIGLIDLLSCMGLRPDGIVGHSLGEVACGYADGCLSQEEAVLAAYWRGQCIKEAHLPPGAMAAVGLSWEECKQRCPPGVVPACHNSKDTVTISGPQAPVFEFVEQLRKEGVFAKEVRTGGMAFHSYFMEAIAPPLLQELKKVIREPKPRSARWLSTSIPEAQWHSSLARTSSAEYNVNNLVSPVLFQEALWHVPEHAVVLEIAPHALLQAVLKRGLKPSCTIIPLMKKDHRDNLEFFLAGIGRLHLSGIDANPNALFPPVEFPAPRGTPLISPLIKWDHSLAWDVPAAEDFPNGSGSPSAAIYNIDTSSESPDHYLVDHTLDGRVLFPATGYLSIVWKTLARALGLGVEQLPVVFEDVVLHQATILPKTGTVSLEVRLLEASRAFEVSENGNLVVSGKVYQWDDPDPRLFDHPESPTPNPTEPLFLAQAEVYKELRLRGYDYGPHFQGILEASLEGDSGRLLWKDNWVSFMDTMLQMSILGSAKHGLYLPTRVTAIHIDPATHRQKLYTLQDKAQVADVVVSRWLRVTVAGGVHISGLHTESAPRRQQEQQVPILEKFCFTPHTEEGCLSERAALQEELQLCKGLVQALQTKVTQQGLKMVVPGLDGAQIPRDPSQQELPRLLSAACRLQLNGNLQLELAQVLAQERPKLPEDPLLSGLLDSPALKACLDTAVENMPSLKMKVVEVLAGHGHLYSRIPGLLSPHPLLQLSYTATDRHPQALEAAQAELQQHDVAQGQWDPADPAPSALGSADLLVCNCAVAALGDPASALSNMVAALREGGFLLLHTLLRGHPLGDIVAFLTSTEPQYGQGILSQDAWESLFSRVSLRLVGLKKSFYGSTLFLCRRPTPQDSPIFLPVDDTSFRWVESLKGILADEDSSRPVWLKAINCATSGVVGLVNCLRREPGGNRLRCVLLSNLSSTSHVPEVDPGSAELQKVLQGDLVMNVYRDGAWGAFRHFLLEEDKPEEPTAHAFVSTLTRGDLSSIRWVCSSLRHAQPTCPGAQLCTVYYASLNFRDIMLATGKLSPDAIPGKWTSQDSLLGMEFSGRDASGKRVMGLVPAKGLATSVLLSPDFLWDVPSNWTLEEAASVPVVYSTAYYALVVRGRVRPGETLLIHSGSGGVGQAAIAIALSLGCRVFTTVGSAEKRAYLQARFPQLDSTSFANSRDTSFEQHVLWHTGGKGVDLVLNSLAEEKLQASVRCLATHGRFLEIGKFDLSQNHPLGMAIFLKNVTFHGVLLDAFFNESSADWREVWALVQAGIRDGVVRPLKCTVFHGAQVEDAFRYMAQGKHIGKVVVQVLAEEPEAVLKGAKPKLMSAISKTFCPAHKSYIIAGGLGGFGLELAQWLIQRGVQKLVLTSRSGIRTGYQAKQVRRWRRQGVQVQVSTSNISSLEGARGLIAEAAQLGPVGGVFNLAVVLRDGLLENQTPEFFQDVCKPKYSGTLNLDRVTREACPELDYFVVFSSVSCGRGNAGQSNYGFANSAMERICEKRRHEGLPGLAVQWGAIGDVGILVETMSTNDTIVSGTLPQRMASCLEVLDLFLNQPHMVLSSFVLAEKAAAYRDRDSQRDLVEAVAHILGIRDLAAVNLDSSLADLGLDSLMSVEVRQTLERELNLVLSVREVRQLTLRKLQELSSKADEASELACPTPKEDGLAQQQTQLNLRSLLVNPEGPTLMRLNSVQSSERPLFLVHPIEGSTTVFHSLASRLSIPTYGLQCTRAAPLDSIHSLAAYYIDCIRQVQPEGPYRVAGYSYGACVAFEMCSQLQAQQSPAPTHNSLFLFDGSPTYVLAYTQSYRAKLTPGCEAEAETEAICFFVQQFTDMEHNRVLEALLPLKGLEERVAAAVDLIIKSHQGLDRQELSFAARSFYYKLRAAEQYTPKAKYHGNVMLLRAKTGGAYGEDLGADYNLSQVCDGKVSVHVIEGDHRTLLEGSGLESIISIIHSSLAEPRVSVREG
structure (smiles),measurement,value
"CC(=O)NCCNC(=O)Nc1cc(C(=O)N2CCC(c3ccc(C#N)cc3)CC2)ccc1C [Example 55, N-[2-[[5-[4-(4-cyanophenyl)piperidine-1-carbonyl]-2-methyl-phenyl]carbamoylamino]ethyl]acetamide]",inhibition at 100 µM,93.2%
"Cc1ccc(C(=O)N2CCC(c3ccc(C#N)cc3)CC2)cc1NC(=O)NCc1ccc(F)c(F)c1 [Example 56, 1-[5-[4-(4-cyanophenyl)piperidine-1-carbonyl]-2-methyl-phenyl]-3-[(3,4-difluorophenyl)methyl]urea]",inhibition at 100 µM,105%
"Cc1ccc(C(=O)N2CCC(c3ccc(C#N)cc3)CC2)cc1NC(=O)NCCc1ccc(S(N)(=O)=O)cc1 [Example 57, 1-[5-[4-(4-cyanophenyl)piperidine-1-carbonyl]-2-methyl-phenyl]-3-[2-(4-sulfamoylphenyl)ethyl]urea]",inhibition at 100 µM,96.8%
"Cc1ccc(C(=O)N2CCC(c3ccc(C#N)cc3)CC2)cc1NC(=O)NCC(N)=O [Example 58, 2-[[5-[4-(4-cyanophenyl)piperidine-1-carbonyl]-2-methyl-phenyl]carbamoylamino]acetamide]",inhibition at 100 µM,89.9%
"Cc1ccc(C(=O)N2CCC(c3ccc(C#N)cc3)CC2)cc1NC(=O)NC(C)(C)CNc1ccccc1 [Example 59, 3-(1-anilino-2-methyl-propan-2-yl)-1-[5-[4-(4-cyanophenyl)piperidine-1-carbonyl]-2-methyl-phenyl]urea]",inhibition at 100 µM,87.2%
"Cc1ccc(C(=O)N2CCC(c3ccc(C#N)cc3)CC2)cc1NC(=O)NCCc1ccccn1 [Example 60, 1-[5-[4-(4-cyanophenyl)piperidine-1-carbonyl]-2-methyl-phenyl]-3-(2-pyridin-2-ylethyl)urea]",inhibition at 100 µM,95.3%
"COc1ccccc1CCNC(=O)Nc1cc(C(=O)N2CCC(c3ccc(C#N)cc3)CC2)ccc1C [Example 61, 1-[5-[4-(4-cyanophenyl)piperidine-1-carbonyl]-2-methyl-phenyl]-3-[2-(2-methoxyphenyl)ethyl]urea]",inhibition at 100 µM,84.8%
"Cc1ccc(C(=O)N2CCC(c3ccc(C#N)cc3)CC2)cc1NC(=O)NCCc1ccncc1 [Example 62, 1-[5-[4-(4-cyanophenyl)piperidine-1-carbonyl]-2-methyl-phenyl]-3-(2-pyridin-4-ylethyl)urea]",inhibition at 100 µM,101%
"Cc1ccc(C(=O)N2CCC(c3ccc(C#N)cc3)CC2)cc1NC(=O)NCCc1cccs1 [Example 63, 1-[5-[4-(4-cyanophenyl)piperidine-1-carbonyl]-2-methyl-phenyl]-3-(2-thiophen-2-ylethyl)urea]",inhibition at 100 µM,93.4%
"COc1ccc(CCNC(=O)Nc2cc(C(=O)N3CCC(c4ccc(C#N)cc4)CC3)ccc2C)cc1 [Example 64, 1-[5-[4-(4-cyanophenyl)piperidine-1-carbonyl]-2-methyl-phenyl]-3-[2-(4-methoxyphenyl)ethyl]urea]",inhibition at 100 µM,94%
"COc1cccc(CCNC(=O)Nc2cc(C(=O)N3CCC(c4ccc(C#N)cc4)CC3)ccc2C)c1 [Example 65, 1-[5-[4-(4-cyanophenyl)piperidine-1-carbonyl]-2-methyl-phenyl]-3-[2-(3-methoxyphenyl)ethyl]urea]",inhibition at 100 µM,99.8%
"Cc1ccc(C(=O)N2CCC(c3ccc(C#N)cc3)CC2)cc1NC(=O)NCCc1cccnc1 [Example 66, 1-[5-[4-(4-cyanophenyl)piperidine-1-carbonyl]-2-methyl-phenyl]-3-(2-pyridin-3-ylethyl)urea]",inhibition at 100 µM,91.5%
"Cc1ccc(C(=O)N2CCC(c3ccc(C#N)cc3)CC2)cc1NC(=O)NCCc1c(C)noc1C [Example 67, 1-[5-[4-(4-cyanophenyl)piperidine-1-carbonyl]-2-methyl-phenyl]-3-[2-(3,5-dimethyl-1,2-oxazol-4-yl)ethyl]urea]",inhibition at 100 µM,96.9%
"Cc1ccc(C(=O)N2CCC(c3ccc(C#N)cc3)CC2)cc1NC(=O)NCCc1cccc(F)c1 [Example 68, 1-[5-[4-(4-cyanophenyl)piperidine-1-carbonyl]-2-methyl-phenyl]-3-[2-(3-fluorophenyl)ethyl]urea]",inhibition at 100 µM,102%
"Cc1ccc(C(=O)N2CCC(c3ccc(C#N)cc3)CC2)cc1NC(=O)NCCCCNC(=O)OC(C)(C)C [Example 69, tert-butyl N-[4-[[5-[4-(4-cyanophenyl)piperidine-1-carbonyl]-2-methyl-phenyl]carbamoylamino]butyl]carbamate]",inhibition at 100 µM,87.9%
"Cc1ccc(C(=O)N2CCC(c3ccc(C#N)cc3)CC2)cc1NC(=O)NCC(C)(C)C [Example 71, 1-[5-[4-(4-cyanophenyl)piperidine-1-carbonyl]-2-methyl-phenyl]-3-(2,2-dimethylpropyl)urea]",inhibition at 100 µM,94.2%
"COC(=O)CNC(=O)Nc1cc(C(=O)N2CCC(c3ccc(C#N)cc3)CC2)ccc1C [Example 72, Methyl 2-[[5-[4-(4-cyanophenyl)piperidine-1-carbonyl]-2-methyl-phenyl]carbamoylamino]acetate]",inhibition at 100 µM,80.1%
"Cc1ccc(C(=O)N2CCC(c3ccc(C#N)cc3)CC2)cc1NC(=O)N[C@@H](CC(C)C)C(N)=O [Example 73, (2S)-2-[[5-[4-(4-cyanophenyl)piperidine-1-carbonyl]-2-methyl-phenyl]carbamoylamino]-4-methyl-pentanamide]",inhibition at 100 µM,78.2%
"Cc1ccc(C(=O)N2CCC(c3ccc(C#N)cc3)CC2)cc1NC(=O)NCCCN1CCCC1 [Example 74, 1-[5-[4-(4-cyanophenyl)piperidine-1-carbonyl]-2-methyl-phenyl]-3-(3-pyrrolidin-1-ylpropyl)urea]",inhibition at 100 µM,89.6%
"Cc1ccc(C(=O)N2CCC(c3ccc(C#N)cc3)CC2)cc1NC(=O)NCc1ccc(-c2csnn2)cc1 [Example 75, 1-[5-[4-(4-cyanophenyl)piperidine-1-carbonyl]-2-methyl-phenyl]-3-[[4-(thiadiazol-4-yl)phenyl]methyl]urea]",inhibition at 100 µM,87.4%
"Cc1cc(C)n(CCNC(=O)Nc2cc(C(=O)N3CCC(c4ccc(C#N)cc4)CC3)ccc2C)n1 [Example 76, 1-[5-[4-(4-cyanophenyl)piperidine-1-carbonyl]-2-methyl-phenyl]-3-[2-(3,5-dimethylpyrazol-1-yl)ethyl]urea]",inhibition at 100 µM,97.5%
"Cc1ccc(C(=O)N2CCC(c3ccc(C#N)cc3)CC2)cc1NC(=O)NC1CCOC(C)(C)C1 (stereo not shown) [Example 77, 1-[5-[4-(4-cyanophenyl)piperidine-1-carbonyl]-2-methyl-phenyl]-3-(2,2-dimethyloxan-4-yl)urea]",inhibition at 100 µM,89.6%
"Cc1ccc(C(=O)N2CCC(c3ccc(C#N)cc3)CC2)cc1NC(=O)N[C@@H](COC(C)(C)C)C(N)=O [Example 78, (2S)-2-[[5-[4-(4-cyanophenyl)piperidine-1-carbonyl]-2-methyl-phenyl]carbamoylamino]-3-[(2-methylpropan-2-yl)oxy]propanamide]",inhibition at 100 µM,85.7%
"CCCN1CCC(NC(=O)Nc2cc(C(=O)N3CCC(c4ccc(C#N)cc4)CC3)ccc2C)CC1 [Example 79, 3-[5-[4-(4-cyanophenyl)piperidine-1-carbonyl]-2-methyl-phenyl]-1-(1-propyl-4-piperidyl)urea]",inhibition at 100 µM,95.4%
"Cc1ccc(C(=O)N2CCC(c3ccc(C#N)cc3)CC2)cc1NC(=O)NCC1CCS(=O)(=O)C1 (stereo not shown) [Example 80, 1-[5-[4-(4-cyanophenyl)piperidine-1-carbonyl]-2-methyl-phenyl]-3-[(1,1-dioxothiolan-3-yl)methyl]urea]",inhibition at 100 µM,96.1%
"Cc1ccc(C(=O)N2CCC(c3ccc(C#N)cc3)CC2)cc1NC(=O)NCCNC(=O)OCc1ccccc1 [Example 81, Benzyl N-[2-[[5-[4-(4-cyanophenyl)piperidine-1-carbonyl]-2-methyl-phenyl]carbamoylamino]ethyl]carbamate]",inhibition at 100 µM,88.2%
"Cc1ccc(C(=O)N2CCC(c3ccc(C#N)cc3)CC2)cc1NC(=O)NCc1nnn[nH]1 [Example 82, 1-[5-[4-(4-cyanophenyl)piperidine-1-carbonyl]-2-methyl-phenyl]-3-(1H-tetrazol-5-ylmethyl)urea]",inhibition at 100 µM,82%
"COc1ccccc1OCCNC(=O)Nc1cc(C(=O)N2CCC(c3ccc(C#N)cc3)CC2)ccc1C [Example 83, 1-[5-[4-(4-cyanophenyl)piperidine-1-carbonyl]-2-methyl-phenyl]-3-[2-(2-methoxyphenoxy)ethyl]urea]",inhibition at 100 µM,102%
"COc1ccc([C@@H](C)NC(=O)Nc2cc(C(=O)N3CCC(c4ccc(C#N)cc4)CC3)ccc2C)cc1 [Example 84, 1-[5-[4-(4-cyanophenyl)piperidine-1-carbonyl]-2-methyl-phenyl]-3-[(1R)-1-(4-methoxyphenyl)ethyl]urea]",inhibition at 100 µM,92.3%
"Cc1ccc(C(=O)N2CCC(c3ccc(C#N)cc3)CC2)cc1NC(=O)NCc1cccc(N)c1 [Example 85, 3-[(3-aminophenyl)methyl]-1-[5-[4-(4-cyanophenyl)piperidine-1-carbonyl]-2-methyl-phenyl]urea]",inhibition at 100 µM,93.6%
"Cc1ccc(C(=O)N2CCC(c3ccc(C#N)cc3)CC2)cc1NC(=O)NCCNS(=O)(=O)c1ccccc1 [Example 86, 3-[2-(benzenesulfonamido)ethyl]-1-[5-[4-(4-cyanophenyl)piperidine-1-carbonyl]-2-methyl-phenyl]urea]",inhibition at 100 µM,94%
"Cc1ccc(C(=O)N2CCC(c3ccc(C#N)cc3)CC2)cc1NC(=O)NCCNc1ccc([N+](=O)[O-])cc1 [Example 87, 1-[5-[4-(4-cyanophenyl)piperidine-1-carbonyl]-2-methyl-phenyl]-3-[2-[(4-nitrophenyl)amino]ethyl]urea]",inhibition at 100 µM,92.5%
"Cc1ccc(C(=O)N2CCC(c3ccc(C#N)cc3)CC2)cc1NC(=O)NC(C)c1ccc(F)cc1 (stereo not shown) [Example 88, 1-[5-[4-(4-cyanophenyl)piperidine-1-carbonyl]-2-methyl-phenyl]-3-[1-(4-fluorophenyl)ethyl]urea]",inhibition at 100 µM,87.6%
"Cc1ccc(C(=O)N2CCC(c3ccc(C#N)cc3)CC2)cc1NC(=O)NCc1ccoc1 [Example 89, 1-[5-[4-(4-cyanophenyl)piperidine-1-carbonyl]-2-methyl-phenyl]-3-(3-furylmethyl)urea]",inhibition at 100 µM,93.1%
